{"source": "patent US20060046976A1", "about": "“Method for increasing the bone mineral density and bone micro-architecture or connectivity of a mammal using N-acylated glucosamines” (priority 2004, published 2006)", "key": {"[1]": {"system": "non-ovariectomised animals", "experiment": "BMD by DXA in non-ovariectomised rats fed GlcNBu", "assay_type": "in vivo, rat", "settings": "200 mg GlcNBu daily, not statistically significant, data not shown", "procedure": "(§1) Sixteen ovariectomised rats (Charles River Laboratories), approximately 200 g in weight, were randomized into two groups. The control group received 200 mg of glucose, by mouth as single daily doses and the GlcNBu-treated group received 200 mg of GlcNBu by mouth, as single daily doses, for a total period of six (6) months. A similar group of non-ovariectomised animals was fed with GlcNBu or glucose at the same doses. The feeding of the compounds was done in small amounts of peanut butter which was very acceptable to the rats, which were allowed free access to water and rat chow. The animals had the BMDs of the femurs (total or global BMD) and the lumbar spines were estimated at baseline and then at, approximately 2, 4 and 6 months. Consistent position of the femurs was assured with a pre-determined grid. A Hologic 4500 DXA machine, with small animal software, was employed for the study. The animals were lightly anesthetized for each measurement."}, "[2]": {"system": "non-ovariectomised animals", "experiment": "Wet weight of femurs, non-ovariectomised rats", "assay_type": "in vivo, rat", "settings": "oral feeding of GlcNBu, 6 months", "procedure": "as §1\n(§2) At the end of the experiment, the animals were sacrificed, plasma was collected by cardiac puncture, and the femurs removed, fully dissected from adherent tissue and the wet weight was determined. The concentrations of Insulin-like Growth factor I (IGF-1) in the plasma, obtained at the end of the experiment, were determined by a commercial immunological method."}, "SCW-arthritis rats": {"system": "SCW-arthritis rats", "experiment": "Micro-CT three-dimensional trabecular bone measurements of proximal tibia, SCW-arthritis rats", "assay_type": "in vivo, Lewis type rats", "excerpt": "In this experiment performed and described herein, there were four groups of Lewis type rats, consisting of eight (8) animals in each group. Lewis type rats had experimental arthritis induced by a single intra-peritoneal injection of streptococcal cell wall antigen (SCW). This type of arthritis has an acute and chronic phase and affects mostly the distal joints in the hind limbs of the animals, and, less so, the knees and hips. Groups 1-3, inclusive, had inflammatory arthritis induced. The compound used in the experiment was used to supplement normal rat chow feed on a daily basis. Feed and water were unrestricted. Group I feed was supplemented with the compound shown in formula II, abbreviated as GlcNBu, at a dose of 200mg/kg/day. Group 3 feed was supplemented with GlcNBu at 20 mg/kg/day. At the end of 6 weeks, the animals were sacrificed, the femurs and tibias were excised, fixed in formalin and the BMD, micro-CT measurements, 3-dimentional measurements and two-dimentional subchondral bone analysis were carried out, by the methods detailed below. • BMD. All the dissected femurs and tibiae were scanned with dual energy x-ray absorptiometry (DXA) were measured at the distal femur, and proximal tibia using a user defined region of interest (ROI). • Micro-CT imaging protocol. The fixed left tibiae were scanned with micro-CT scanner (Explore Locus SP micro CT Scanner, GE Healthcare). The tibias were placed in a water filled specimen tube in a firmed position such that the main axis was kept as parallel as possible to the Z-axis of the micro-CT image coordinate system. The reconstructed tibia images were analyzed with MicroView 2.0 software (GE Healthcare, London, ON) in two and three dimensions. • Three-dimensional trabecular bone measurements. Three dimensional bone analyses were conducted using three selected ROIs using MicroView 2.0 analysis software. On 3D analysis, the tissue volume (3D-TV, mm3) and trabecular bone volume (3D-BV, mm3) were measured directly, and the fractional trabecular bone volume (3D-BV/TV, %) was calculated. […] Another parameter obtained is the structure model index (SMI). The SMI represented the plate-rod characteristics of trabecular structure. In this measure, a negative number is indicative of a plate-like structure containing holes, 0 represents an ideal plate-like structure while 3 represents the ideal rod (cylindrical) structure. Larger SMI values indicate that trabecular structure contains a more rod-like structure in older or diseased bone. • Three-dimensional isosurface. A 3-D isosurface image of each tibia was obtained by a volume-rendering function in MicroView to qualitatively examine the erosive damage in the bone surface. • Two-dimensional subchondral bone analysis. Three coronal sections of proximal tibia were obtained from each 3-D reconstructed tibia image: anterior, central, and posterior (1 mm apart). The subchondral trabecular bone structure and connectivity in the epiphyseal region of the proximal tibia was analyzed using an image processing and analysis system (Quantimet 570, Leica) on the 2-D micro-CT images."}, "ovariectomised rats": {"system": "ovariectomised rats", "experiment": "Wet weight of femurs, ovariectomised rats", "assay_type": "in vivo, rat", "settings": "ovariectomised animals, oral feeding of GlcNBu, 6 months", "procedure": "as §1, §2"}, "[3]": {"settings": "SCW + GlcNBu High, lateral epiphysis of proximal tibia"}, "[4]": {"settings": "SCW + GlcNBu High, medial epiphysis of proximal tibia"}, "[5]": {"settings": "SCW + GlcNBu High, metaphysis of proximal tibia"}, "[6]": {"settings": "SCW + GlcNBu Low, lateral epiphysis of proximal tibia"}, "[7]": {"settings": "SCW + GlcNBu Low, medial epiphysis of proximal tibia"}, "[8]": {"settings": "SCW + GlcNBu Low, metaphysis of proximal tibia"}}}
{"smiles": "CCCC(=O)N[C@H]1C(O)O[C@H](CO)[C@@H](O)[C@@H]1O", "note": "(stereo partly drawn) [GlcNBu, N-butyryl-D-glucosamine]", "values": [{"measurement": "BMD at the sites measured vs glucose-fed animals", "setting": "[1]", "value": "higher trends in the BMD"}, {"measurement": "femoral wet weight", "setting": "[2]", "value": "increases femoral wet weight"}, {"measurement": "correction in SMI values compared to the untreated group", "setting": "SCW-arthritis rats; GlcNBu treated groups, three tested areas", "value": "15-33%"}, {"measurement": "Trabecular Bone Volume", "setting": "SCW-arthritis rats; [3]", "value": "36.9 ± 3.7", "unit": "%"}, {"measurement": "Trabecular Number", "setting": "SCW-arthritis rats; [3]", "value": "6.0 ± 0.6"}, {"measurement": "Trabecular Thickness", "setting": "SCW-arthritis rats; [3]", "value": "0.054 ± 0.008", "unit": "mm"}, {"measurement": "Trabecular Bone Volume", "setting": "SCW-arthritis rats; [4]", "value": "36.3 ± 4.8", "unit": "%"}, {"measurement": "Trabecular Number", "setting": "SCW-arthritis rats; [4]", "value": "5.1 ± 0.7"}, {"measurement": "Trabecular Thickness", "setting": "SCW-arthritis rats; [4]", "value": "0.066 ± 0.014", "unit": "mm"}, {"measurement": "Trabecular Bone Volume", "setting": "SCW-arthritis rats; [5]", "value": "32.6 ± 4.7", "unit": "%"}, {"measurement": "Trabecular Number", "setting": "SCW-arthritis rats; [5]", "value": "8.2 ± 1.5"}, {"measurement": "Trabecular Thickness", "setting": "SCW-arthritis rats; [5]", "value": "0.034 ± 0.004", "unit": "mm"}, {"measurement": "Trabecular Bone Volume", "setting": "SCW-arthritis rats; [6]", "value": "33.7 ± 2.7", "unit": "%"}, {"measurement": "Trabecular Number", "setting": "SCW-arthritis rats; [6]", "value": "5.8 ± 0.5"}, {"measurement": "Trabecular Thickness", "setting": "SCW-arthritis rats; [6]", "value": "0.052 ± 0.008", "unit": "mm"}, {"measurement": "Trabecular Bone Volume", "setting": "SCW-arthritis rats; [7]", "value": "33.1 ± 3.0", "unit": "%"}, {"measurement": "Trabecular Number", "setting": "SCW-arthritis rats; [7]", "value": "5.0 ± 0.4"}, {"measurement": "Trabecular Thickness", "setting": "SCW-arthritis rats; [7]", "value": "0.062 ± 0.011", "unit": "mm"}, {"measurement": "Trabecular Bone Volume", "setting": "SCW-arthritis rats; [8]", "value": "34.4 ± 9.4", "unit": "%"}, {"measurement": "Trabecular Number", "setting": "SCW-arthritis rats; [8]", "value": "7.7 ± 1.3"}, {"measurement": "Trabecular Thickness", "setting": "SCW-arthritis rats; [8]", "value": "0.034 ± 0.005", "unit": "mm"}, {"measurement": "trabecular bone volume, trabecular number and thickness decreases in arthritis", "setting": "SCW-arthritis rats; SCW-arthritis rats, GlcNBu 20 and 200 mg/kg/day, 2D and 3D images", "value": "corrected by GlcNBu treatment in a dose dependent manner"}, {"measurement": "trabecular separation increase in SCW group", "setting": "SCW-arthritis rats; SCW-arthritis rats, GlcNBu treatment", "value": "significantly reduced"}, {"measurement": "increase in metaphyseal trabecular volume from Group2 to the GlcNBu treated groups", "setting": "SCW-arthritis rats; SCW-arthritis rats, low and high dose groups, p<0.05", "value": 12, "unit": "%"}, {"measurement": "femoral wet weight", "setting": "ovariectomised rats", "value": "increases femoral wet weight"}]}
